Experimental data reported in article PMC9307329, “Enzymes Inhibition and Antioxidant Potential of Medicinal Plants Growing in Oman” (BioMed Research International, 2022).

Biological target: Jack bean urease (Canavalia ensiformis, UniProt P07374)
Conditions: substrate urea; phosphate buffer pH […]; […]°C; […] min

Jack bean urease, sequence (P07374 whole entry, looked up): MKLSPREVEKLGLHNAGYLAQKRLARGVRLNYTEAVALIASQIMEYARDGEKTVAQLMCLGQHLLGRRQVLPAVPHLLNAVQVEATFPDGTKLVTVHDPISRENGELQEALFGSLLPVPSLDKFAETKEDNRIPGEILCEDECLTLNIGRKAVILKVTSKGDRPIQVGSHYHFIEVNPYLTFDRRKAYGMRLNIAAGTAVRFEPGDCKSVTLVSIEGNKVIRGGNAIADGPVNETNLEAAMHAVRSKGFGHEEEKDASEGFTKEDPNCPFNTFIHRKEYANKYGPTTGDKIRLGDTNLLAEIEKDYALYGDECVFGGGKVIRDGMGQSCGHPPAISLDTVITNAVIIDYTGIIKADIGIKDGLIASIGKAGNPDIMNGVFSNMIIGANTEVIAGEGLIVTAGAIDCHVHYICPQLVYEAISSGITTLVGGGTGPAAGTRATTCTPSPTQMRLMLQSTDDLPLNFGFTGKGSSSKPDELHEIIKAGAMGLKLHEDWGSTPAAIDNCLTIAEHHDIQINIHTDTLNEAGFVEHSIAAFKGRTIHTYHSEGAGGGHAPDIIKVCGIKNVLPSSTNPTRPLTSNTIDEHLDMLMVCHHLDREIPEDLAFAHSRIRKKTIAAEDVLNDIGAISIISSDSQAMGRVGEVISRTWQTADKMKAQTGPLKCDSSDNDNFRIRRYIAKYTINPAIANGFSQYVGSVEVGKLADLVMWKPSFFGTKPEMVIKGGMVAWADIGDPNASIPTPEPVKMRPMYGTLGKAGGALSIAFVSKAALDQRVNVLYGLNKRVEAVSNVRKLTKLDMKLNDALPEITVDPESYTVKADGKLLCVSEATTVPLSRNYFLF

Structure (SMILES): NC(N)=S [Thiourea]
- Urease IC50 ± SEM: 1.58 ± 0.95 mg/L
